# In US6500849B1, “1-alkyl-, 1-alkenyl-, and 1-alkynylaryl-2-amino 1,3-propanediols and related compounds” (Aventis Pharmaceuticals Inc., priority 1990, dated 2002):
# Read-outs that look alike come from different tables or passages of the source.
# Tests used:
# [1] = system: Spaeroph. freundii; experiment: Anerobic antibacterial assay (agar dilution, Wilkins-Chalgren agar); format: cell-based; conditions: 48 h, read-out: Antibacterial activity (MIC, mg/l)
# [2] = system: Klebsiella spp.; experiment: Aerobic antibacterial assay (agar dilution, Mueller-Hinton agar); conditions: Klebsiella, 24 h, read-out: Antibacterial activity (MIC, mg/l)
# [3] = system: Fusobact. varium; experiment: Anerobic antibacterial assay (agar dilution, Wilkins-Chalgren agar); format: cell-based; conditions: 48 h, read-out: Antibacterial activity (MIC, mg/l)
# [4] = system: Trichophyton Mentagrophytes; experiment: Antifungal assay (microtitration technique); format: cell-based; conditions: 120 h; Trichophyton Mentagrophytes strain 100/25; 5 days at 30° C.
# Experimental: (§1) The microtiter plate is prepared as follows: The wells are each filled (2 rows/strain) with 50 μl neopeptone-dextrose broth (12-channel pipette). In addition, one row/strain is coated with 50 μl yeast-nitrogen base/well for yeasts and moulds. […] All wells are then inoculated with 150 μl standardized organism suspension (yeasts: 1×10^3 organisms/ml suspension; cutaneous fungi and moulds: 1.6×10^5 organisms/ml suspension); the total volume is 200 μl per well. There is also a growth control (inoculated, not medicated), a solvent control (inoculated, not medicated, containing solvent as in medicated rows) and a negative control (not inoculated, not medicated). Incubation for 5 days at 30° C. is followed by photometric evaluation. The obtained measurements are checked visually (macroscopically and microscopically) and corrected where necessary. Criteria for Evaluation of the Antimycotic Effect a. Photometric measurements (matrix method) b. Growth, macroscopic evaluation c. Growth, microscopic evaluation (inversion light microscope, magn. 64×).
# [5] = system: Microsporum Canis; experiment: Antifungal assay (microtitration technique); format: cell-based; conditions: 120 h; Microsporum Canis strain 150/353; 5 days at 30° C.
# Experimental: as §1
# [6] = system: Trichophyton Vaginalis; experiment: Antifungal assay (microtitration technique); format: cell-based; conditions: 120 h; Trichophyton Vaginalis strain 111/216; 5 days at 30° C.
# Experimental: as §1
# [7] = system: Candida Albicans; experiment: Antifungal assay (microtitration technique); format: cell-based; conditions: 120 h; Candida Albicans strain 200/175; 5 days at 30° C.
# Experimental: as §1
# [8] = system: Trichophyton Rubrum; experiment: Antifungal assay (microtitration technique); format: cell-based; conditions: 120 h; Trichophyton Rubrum strain 101/85; 5 days at 30° C.
# Experimental: as §1
# [9] = system: Aspergillus Niger; experiment: Antifungal assay (microtitration technique); format: cell-based; conditions: 120 h; Aspergillus Niger strain 500/284; 5 days at 30° C.
# Experimental: as §1
# [10] = system: E. cloacae; experiment: Aerobic antibacterial assay (agar dilution, Mueller-Hinton agar); conditions: Enterobacter cloacae, 24 h, read-out: Antibacterial activity (MIC, mg/l)
# [11] = system: E. coli; experiment: as above; format: cell-based; conditions: Escherichia coli, 24 h, read-out: Antibacterial activity (MIC, mg/l)
# [12] = system: Propionibact. acnes; experiment: Anerobic antibacterial assay (agar dilution, Wilkins-Chalgren agar); format: cell-based; conditions: 48 h, read-out: Antibacterial activity (MIC, mg/l)
# [13] = system: Strept. faecium; experiment: Aerobic antibacterial assay (agar dilution, Mueller-Hinton agar); conditions: Enterococcus faecium, 24 h, read-out: Antibacterial activity (MIC, mg/l)
# [14] = system: Clost. perfringens; experiment: microbe, parasite or virus in culture; format: cell-based; conditions: Clostridium perfringens, 48 h, read-out: Antibacterial activity (MIC, mg/l)
# [15] = system: Peptostr. anaerobius; experiment: Anerobic antibacterial assay (agar dilution, Wilkins-Chalgren agar); format: cell-based; conditions: 48 h, read-out: Antibacterial activity (MIC, mg/l)
# [16] = system: Bact. vulgatus; experiment: as above; format: cell-based; conditions: Phocaeicola vulgatus, 48 h, read-out: Antibacterial activity (MIC, mg/l)
# [17] = system: Bact. thetaiotaom.; experiment: as above; format: cell-based; conditions: anaerobic, 48 hours at 37° C.
# [18] = system: Clost. tetani; experiment: as above; format: cell-based; conditions: Clostridium tetani, 48 h, read-out: Antibacterial activity (MIC, mg/l)
# [19] = system: Bact. distasonis; experiment: as above; format: cell-based; conditions: Parabacteroides distasonis, 48 h, read-out: Antibacterial activity (MIC, mg/l)
# [20] = system: Bact. ovatus; experiment: as above; format: cell-based; conditions: Bacteroides ovatus; Bact. ovatus 103; anaerobic; 48 hours at 37° C.; read-out: Antibacterial activity (MIC, mg/l)
# [21] = system: S. typhimurium; experiment: Aerobic antibacterial assay (agar dilution, Mueller-Hinton agar); conditions: Salmonella enterica, TYPHIMURIUM, 24 h, read-out: Antibacterial activity (MIC, mg/l)
# [22] = system: Staph. aureus; experiment: as above; conditions: Staphylococcus aureus, 24 h
# [23] = system: Bact. fragilis; experiment: Anerobic antibacterial assay (agar dilution, Wilkins-Chalgren agar); format: cell-based; conditions: Bacteroides fragilis, anaerobic, 48 hours at 37° C.
# [24] = system: Strept. pyogenes; experiment: Aerobic antibacterial assay (agar dilution, Mueller-Hinton agar); conditions: Streptococcus pyogenes, 24 h, read-out: Antibacterial activity (MIC, mg/l)
structure (smiles),measurement,setting,value
"CCCCCCCCCCc1cccc(C(O)C(N)CO)n1 (stereo not drawn) [erythro-2-Amino-1-(6-Decyl-2-pyridinyl)-1,3-dihydroxypropane]",MIC,[1],12.5 mg/L
same,MIC,[2],12.5 mg/L
same,MIC,[3],12.5 mg/L
same,MIC,[4],31.2 µg/mL
same,MIC,[5],31.2 µg/mL
same,MIC,[6],15.6 µg/mL
same,MIC,[7],31.2 µg/mL
same,MIC,[8],31.2 µg/mL
same,MIC,[9],31.2 µg/mL
same,MIC,[10],12.5 mg/L
same,MIC,"[11]; E. coli 1507E, 24 hours at 37° C.",12.5 mg/L
same,MIC,"[11]; E. coli DC0, 24 hours at 37° C.",12.5 mg/L
same,MIC,"[11]; E. coli DC2, 24 hours at 37° C.",6.25 mg/L
same,MIC,"[11]; E. coli O 78, 24 hours at 37° C.",12.5 mg/L
same,MIC,"[11]; E. coli TEM, 24 hours at 37° C.",25 mg/L
same,MIC,[12],12.5 mg/L
same,MIC,[13],12.5 mg/L
same,MIC,[14],12.5 mg/L
same,MIC,[15],12.5 mg/L
same,MIC,[16],12.5 mg/L
same,MIC,"[17]; 48 h, read-out: Antibacterial activity (MIC, mg/l), Bact. thetaiotaom. 1428",12.5 mg/L
same,MIC,"[17]; 48 h, read-out: Antibacterial activity (MIC, mg/l), Bact. thetaiotaom. 1445",12.5 mg/L
same,MIC,"[17]; Bact. thetaiotaom. 123, read-out: Antibacterial activity (MIC, mg/l)",6.26 mg/L
same,MIC,[18],12.5 mg/L
same,MIC,[19],12.5 mg/L
same,MIC,[20],6.25 mg/L
same,MIC,[21],12.5 mg/L
same,MIC,"[22]; read-out: Antibacterial activity (MIC, mg/l)",6.25 mg/L
same,MIC,"[22]; read-out: Antibacterial activity (MIC, mg/l), Staph. aureus 285, aerobic, 24 hours at 37° C.",12.5 mg/L
same,MIC,"[22]; read-out: Antibacterial activity (MIC, mg/l), Staph. aureus SG511, aerobic, 24 hours at 37° C.",12.5 mg/L
same,MIC,"[23]; 48 h, read-out: Antibacterial activity (MIC, mg/l), Bact. fragilis 312",12.5 mg/L
same,MIC,"[23]; 48 h, read-out: Antibacterial activity (MIC, mg/l), Bact. fragilis 1313",12.5 mg/L
same,MIC,"[23]; 48 h, read-out: Antibacterial activity (MIC, mg/l), Bact. fragilis 17390",12.5 mg/L
same,MIC,"[23]; 48 h, read-out: Antibacterial activity (MIC, mg/l), Bact. fragilis 18125",12.5 mg/L
same,MIC,"[23]; 48 h, read-out: Antibacterial activity (MIC, mg/l), Bact. fragilis 19016",12.5 mg/L
same,MIC,"[23]; Bact. fragilis 960, read-out: Antibacterial activity (MIC, mg/l)",6.25 mg/L
same,MIC,[24],6.25 mg/L
